Assay results from patent US9173920B2, “Methods of treating muscular wasting diseases using NF-KB activation inhibitors” (TheraLogics, Inc., priority 2006, dated 2015).

Tested on: mdx−/− mice
Assay: Diaphragm muscle force measurement after treating mdx−/− mice with peptides comprising NEMO binding domains (Example 3)
Assay type: in vivo
Conditions: for treated mice in which force output was higher: diaphragm muscle
Procedure: In this Example, three week old male mdx−/− mice were treated with various peptides comprising NEMO binding domains. The diaphragm muscles of the mice were then evaluated to determine the ability of the peptides to treat muscle wasting in the mdx mice.
Three week old mdx−/− mice were treated by intraperitoneal injections with 200 μg of either a wild type peptide (SEQ ID NO 19) comprising a NEMO binding domain or a mutant peptide (SEQ ID NO 20). The mice were injected every three days for a total trial period of 27 days. After 27 days, the mice were sacrificed and the diaphragm muscles were removed.
The diaphragm muscles were placed in a chamber filled with Ringer solution and perfused continuously with an O2/CO2 mixture. The muscles were then attached using a steel hook to a force transducer and subsequently stimulated at varying frequencies. At each frequency, forces were allowed to reach a steady state before the data was recorded.

[1] = three week old male mdx−/− mice, 200 μg intraperitoneal every three days for 27 days, FIG. 5

mutant peptide: mutant peptide (SEQ ID NO 20) used as comparator to the wild type NEMO binding domain peptide (TALDASALQTE; NBD mutants) [reference compound]
treated mice in which force output was higher [1]: one of the three

wild type peptide: wild type peptide (SEQ ID NO 19) comprising a NEMO binding domain (TALDWSWLQTE; NBD mutants)
effect on dystrophic phenotype in affected mice (injection, summary statement on Example 3): inhibit the dystrophic phenotype
treated mice in which force output was higher [1]: three of the four
tetanic contractions (force) of diaphragm muscles at various stimulation frequencies (three week old male mdx−/− mice, 200 μg intraperitoneal every three days for 27 days, excised diaphragm in Ringer solution, compared to mutant peptide, FIG. 5): generally higher tentanic contractions
